This note sets out measurements from US20230271949A1, “GLP-1R MODULATING COMPOUNDS” (ASCLETIS BIOSCIENCE CO., LTD., priority 2022, published 2023).

Molecules are shown by their SMILES.

Chain of GLP-1R (P43220 24-463): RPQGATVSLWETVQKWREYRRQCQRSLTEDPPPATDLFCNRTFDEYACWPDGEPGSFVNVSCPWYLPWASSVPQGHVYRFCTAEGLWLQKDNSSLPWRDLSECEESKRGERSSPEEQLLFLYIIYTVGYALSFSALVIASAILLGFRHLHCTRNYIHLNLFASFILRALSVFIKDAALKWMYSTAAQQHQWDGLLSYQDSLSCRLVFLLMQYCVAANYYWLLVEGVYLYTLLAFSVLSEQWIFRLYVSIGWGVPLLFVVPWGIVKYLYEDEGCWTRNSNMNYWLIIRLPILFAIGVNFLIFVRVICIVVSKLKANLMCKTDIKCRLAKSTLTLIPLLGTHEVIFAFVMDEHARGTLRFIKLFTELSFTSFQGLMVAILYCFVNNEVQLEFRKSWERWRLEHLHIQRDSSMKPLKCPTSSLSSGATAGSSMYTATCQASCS

This experiment deals with GLP-1R (Homo sapiens, UniProt P43220). Briefly: GLP-1R agonist cAMP stimulation assay (HTRF cAMP). It counts as cell-based. The following applies: HEK293 cell line expressing GLP-1 target; HTRF cAMP agonist mode, 30 min at RT. The method, then:
cAMP Detection Kit, Cisbio (Cat #62AM4PEJ)
The cell line was constructed by WuXi.
2. Methods • a) The compound source plate preparation: • The reference 7-37 was diluted from 500 nM, 4-fold, 10 points in DMSO using Bravo. The compounds were diluted from […], 3-fold, 10 points in DMSO using Bravo. • b) Transfer of compounds: • 1) Use Echo transfer 100 nL cpd to the OptiPlate-384 plate. • 2) Spin the plates at 1000 rpm for 5 sec. • c) Cell suspension preparation: • 1) Thaw 1 vial of GLP-1 cells rapidly in 37° C. water bath. • 2) Transfer cell suspension into 10 ml of HBSS in a 15 ml conical tube. • 3) Centrifuge cells at 1000 rpm for 5 min at room temperature to pellet cells • 4) Gently aspirate supernatant being careful not to aspirate cells. • 5) Flick pellet to loose cells and re-suspend the cell pellet in 10 ml HBSS. Use a sterile pipette to pipette up and down to dislodge clumps. • 6) Count cells for concentration and to determine cell viability on Vi-cell. • 7) Re-suspend the GLP-1 cells in assay buffer at a concentration of 1.0×E5/mL cells. • 8) Transfer 10 μL GLP-1 cells to OptiPlate-384 plate. • d) HTRF cAMP Assay for agonist: • 1) Incubate the plate at RT for 30 min before adding the detection reagent. • 2) Add 10 μL each of detection reagent using Electric Multiple Channel Pipette. • 3) Cover the 384 plate with TopSeal-A film and incubate for 60 minutes at room temperature. • Remove the TopSeal-A, read on EnVision.
Create a new log (Inhibitor) vs response—Variable slope mode in Prism5.0 software, substitute the standard curve concentration (x) and its corresponding 665/615 data (y) into the model, convert the standard curve concentration (abscissa) by x=log(x), and make the standard curve through the converted xy.
Transform the data of 665/615 in the whole plate into a column of data, substitute it into y in the table of standard curve concentration (x) and 665/615 data (y), copy the x (interpolatedx) corresponding to automatic conversion by the software into a table, convert it into cAMP level by the formula x=10^(x), and reset the data into 384 distribution.
% Activity=(cAMP level−LC)/(HC−LC)*100% • Z factor: 1-3*(STD_HC+[…])/(HC-LC) • Assay Window: HC/LC • LC: The average cAMP level of adding DMSO wells • HC: The average cAMP level of adding the top concentration of reference compounds wells.
Create a new […] in Prism5.0 software, substitute the sample concentration (x) and its corresponding % Activity data (y) into the model, convert the standard curve concentration (abscissa) to x=log(x), and make the sample curve through the converted xy.
For orientation: Time-resolved FRET reads energy transfer from a long-lived donor to a nearby acceptor.
`COc1n[nH]c2ccc(NC(=O)c3ccc4c(c3)nc(CN3CCC(c5cccc(OCc6ccc(Cl)cc6F)n5)CC3)n4C[C@@H]3CCO3)cc12` [Compound 81]: it took 14.5 nM to reach a half-maximal effect (EC50).

As for `Cc1n[nH]c2ccc(C(=O)Nc3ccc4nc(CN5CC=C(c6cccc(OCc7ccc(Cl)cc7F)n6)CC5)n(CC5CCO5)c4c3)cc12` (stereo not shown) [Compound 278], the EC50 (commonly the concentration that produces a half-maximal response) was 3.18 nM.

Regarding `O=C(Nc1nc2[nH]cnc2o1)c1ccc2c(c1)nc(CN1CC=C(c3cccc(OCc4ccc(Cl)cc4F)n3)CC1)n2C[C@@H]1CCO1` [Compound 404], the midpoint of the response, the EC50, lay at 19.8 nM.

`O=C(Nc1cc(C(F)(F)F)c2[nH]nc(C3CC3)c2c1)c1ccc2c(c1)nc(CN1CC=C(c3cccc(OCc4ccc(Cl)cc4F)n3)CC1)n2C[C@@H]1CCO1` [Compound 163]: the EC50 is 0.99 nM.

`Cc1cc(NC(=O)c2ccc3c(c2)nc(CN2CC=C(c4cccc5c4OC(C)(c4ccc(Cl)cc4F)O5)CC2)n3C[C@@H]2CCO2)cc2c1NC(=O)C21CC1` (stereo partly shown) [Compound 301] showed an EC50 of 0.18 nM.

`Cc1n[nH]c2c(F)cc(NC(=O)c3ccc4nc(CN5CC=C(c6cccc(OCc7ccc(Cl)cc7F)n6)CC5)n(CC5CCO5)c4c3)cc12` (stereo not shown) [Compound 262] came in with an EC50 of 3.12 nM.

In turn, `Cc1cc(C(=O)Nc2ccc3c(c2)nc(C2CC24CCN(c2cccc(OCc5ccc(Cl)cc5F)n2)CC4)n3C[C@@H]2CCO2)cc2c1NC(=O)C21CC1` (stereo partly shown) [Compound 247] had an EC50 of 0.83 nM.

Turning to `Cc1n[nH]c2cnc(NC(=O)c3ccc4c(c3)nc(CN3CC=C(c5cccc(OCc6ccc(Cl)cc6F)n5)CC3)n4C[C@@H]3CCO3)nc12` [Compound 168], the midpoint of the response, the EC50, lay at 10.5 nM.

Turning to `Cc1cc(NC(=O)c2ccc3c(c2)nc(CN2CC=C(c4cccc(OCc5ccc(Cl)cc5F)n4)CC2)n3C[C@@H]2CCO2)cc2c(C(F)F)n[nH]c12` [Compound 169], a half-maximal effect (EC50) was put at 1.02 nM.

Turning to `Cc1n[nH]c2c(F)cc(NC(=O)c3ccc4c(c3)nc(CN3CC=C(c5cccc6c5O[C@@](C)(c5ccc(C#N)cc5F)O6)CC3)n4CC3CCO3)cc12` (stereo partly shown) [Compound 298], the EC50 amounted to 0.37 nM.

In turn, `CCc1n[nH]c2ccc(C(=O)Nc3ccc4c(c3)nc(C3CC35CCN(c3cccc(OCc6ccc(Cl)cc6F)n3)CC5)n4CC3CCO3)cc12` (stereo not shown) [Compound 250] returned a concentration for a half-maximal effect (EC50) of 1.49 nM.

Regarding `COCCn1c(CN2CCC(c3cccc(OCc4ccc(Cl)cc4F)n3)CC2)nc2cc(C(=O)NCc3ccccc3O)ccc21` [Compound 35], the EC50 is more than 10000 nM.

Turning to `N#Cc1ccc(COc2cccc(C3=CCN(Cc4nc5cc(C(=O)Nc6cc(F)c7[nH]ncc7c6)ccc5n4C[C@@H]4CCO4)CC3)n2)c(F)c1` [Compound 180], the EC50 came out at 1.06 nM.

`COCCn1c(CN2CCC(c3cccc(OCc4ccc(Cl)cc4F)n3)CC2)nc2cc(C(=O)NCc3cccc(O)c3)ccc21` [Compound 32]: the EC50 is 112 nM.

`Cc1n[nH]c2c(F)cc(C(=O)Nc3ccc4c(c3)nc(C(F)(F)N3CC=C(c5cccc(OCc6ccc(Cl)cc6F)n5)CC3)n4C[C@@H]3CCO3)cc12` [Compound 255] yielded an EC50 of 0.32 nM.

Molecule `O=C(NC1=Nc2nccn2C1)c1ccc2c(c1)nc(CN1CC=C(c3cccc(OCc4ccc(Cl)cc4F)n3)CC1)n2C[C@@H]1CCO1` [Compound 400] showed an EC50 of 104 nM.

`O=C(Nc1ncc2[nH]cnc2n1)c1ccc2c(c1)nc(CN1CC=C(c3cccc(OCc4ccc(Cl)cc4F)n3)CC1)n2C[C@@H]1CCO1` [Compound 144] yielded an EC50 of 23.4 nM.

Consider `Cc1n[nH]c2c(C)cc(C(=O)Nc3ccc4c(c3)nc(C(F)(F)N3CC=C(c5cccc(OCc6ccc(Cl)cc6F)n5)CC3)n4C[C@@H]3CCO3)cc12` [Compound 256], for which it took 12.5 nM to reach a half-maximal effect (EC50).

As for `O=C(Nc1ccc2[nH]c(=O)cnc2c1)c1ccc2c(c1)nc(CN1CCC(c3cccc(OCc4ccc(Cl)cc4F)n3)CC1)n2C[C@@H]1CCO1` [Compound 84], the EC50 worked out at 17.9 nM.

Consider `CC1(c2ccc(Cl)cc2F)Oc2cccc(C3CCN(Cc4nc5cc(C(=O)Nc6ccc7[nH]nc(C(F)(F)F)c7c6)ccc5n4CC4CCO4)CC3)c2O1` (stereo not shown) [Compound 333], for which a half-maximal response (EC50) required 2.19 nM.

`COc1n[nH]c2ccc(C(=O)Nc3ccc4c(c3)nc(CN3CC=C(c5cccc(OCc6ccc(Cl)cc6F)n5)CC3)n4C[C@@H]3CCO3)cc12` [Compound 201] had an EC50 of 1.99 nM.

Turning to `COCCn1c(Cc2ccc(-c3cccc(OCc4ccc(C#N)cc4F)n3)cc2)nc2cc(C(=O)NCCc3ccc(O)cc3)ccc21` [Compound 1, 2-(4-(6-((4-cyano-2-fluorobenzyl)oxy)pyridin-2-yl)benzyl)-N-(4-hydroxyphenethyl)-1-(2-methoxyethyl)-1H-benzo[d]imidazole-5-carboxamide], the EC50 came out at 4150 nM.

Turning to `Cc1c(C#N)sc(COc2cccc(C3CCN(Cc4nc5cc(NC(=O)c6ccc7[nH]nc(C)c7c6)ccc5n4C[C@@H]4CCO4)CC3)n2)c1F` [Compound 373], a half-maximal response (EC50) required 0.39 nM.

In turn, `Cc1n[nH]c2c(Cl)cc(NC(=O)c3ccc4c(c3)nc(CN3CC=C(c5cccc6c5OC(C)(c5ccc(Cl)cc5F)O6)CC3)n4CC3CCO3)cc12` (stereo not shown) [Compound 293] showed an EC50 of 0.99 nM.

Molecule `Cc1n[nH]c2c(C(F)(F)F)cc(C(=O)Nc3ccc4nc(CN5CC=C(c6cccc(OCc7ccc(Cl)cc7F)n6)CC5)n(CC5CCO5)c4c3)cc12` (stereo not shown) [Compound 287] came in with an EC50 of 2.98 nM.

`Cc1cc(NC(=O)c2ccc3c(c2)nc(CN2CCC(c4cccc(OCc5ccc(Cl)cn5)n4)CC2)n3C[C@@H]2CCO2)cc2c1NC(=O)C21CC1` [Compound 131] registered an EC50 of 1.21 nM.

`COCCn1c(C2CC23CCN(c2cccc(OCc4ccc(C#N)cc4F)n2)CC3)nc2cc(C(=O)Nc3ccc4[nH]nc(C)c4c3)ccc21` (stereo not shown) [Compound 7] displayed an EC50 of 0.35 nM.

`Cc1cc(NC(=O)c2ccc3c(c2)nc(CN2CC=C(c4cccc(OCc5ccc(Cl)cc5F)n4)CC2)n3C[C@@H]2CCO2)c(C)c2c(C)n[nH]c12` [Compound 173]: the EC50 is 31.5 nM.

For the molecule `Cc1n[nH]c2c(C(F)(F)F)cc(C(=O)Nc3ccc4c(c3)nc(CN3CC=C(c5cccc(OCc6ccc(Cl)cn6)n5)CC3)n4C[C@@H]3CCO3)cc12` [Compound 213], the EC50 stood at 0.78 nM.

`Cc1cc2c(C#N)ccc(COc3cccc(C4=CCN(Cc5nc6cc(NC(=O)c7cc(F)c8[nH]nc(C)c8c7)ccc6n5C[C@@H]5CCO5)CC4)n3)c2o1` [Compound 360] displayed an EC50 of 0.19 nM.

On to `N#Cc1ccc(COc2cccc(C3CCN(Cc4nc5cc(C(=O)NCC(=O)N6C[C@@H](F)C[C@H]6C(=O)O)ccc5n4C[C@@H]4CCO4)CC3)n2)c(F)c1` [Compound 44], for which the EC50 was 4.36 nM.

`Cc1n[nH]c2c(F)cc(NC(=O)c3ccc4c(c3)nc(CN3CC=C(c5cccc(OCc6ccc(C#N)c7c6ncn7C)n5)CC3)n4C[C@@H]3CCO3)cc12` [Compound 367]: the EC50 is 3.92 nM.

With `O=C(NCC(=O)N1C[C@H](O)C[C@@H]1C(=O)O)c1ccc2c(c1)nc(CN1CCC(c3cccc(OCc4ccc(Cl)cc4F)n3)CC1)n2C[C@@H]1CCO1` [Compound 46], a half-maximal effect (EC50) was put at 42.4 nM.

In the case of `O=C(Nc1ccc2c(c1)nc(CN1CC=C(c3cccc(OCc4ccc(Cl)cc4F)n3)CC1)n2C[C@@H]1CCO1)c1ccc2[nH]nc(C3CC3)c2c1` [Compound 216], it took 0.82 nM to reach a half-maximal effect (EC50).

In turn, `COCCn1c(Cc2ccc(-c3cccc(OCc4ccc(C#N)cc4F)n3)cc2)nc2cc(NC(=O)CCc3ccccc3O)ccc21` [Compound 13] registered an EC50 of 189 nM.

The molecule `Cc1n[nH]c2c(F)cc(NC(=O)c3ccc4c(c3)nc(CN3CCC(c5cccc(OCc6cc(F)c(C#N)s6)n5)CC3)n4C[C@@H]3CCO3)cc12` [Compound 375] yielded an EC50 of 1.01 nM.

Take `CC1(c2ccc(Cl)cc2F)Oc2cccc(C3=CCN(Cc4nc5cc(C(=O)Nc6ccc7[nH]nc(C8CC8)c7c6)ccc5n4CC4CCO4)CC3)c2O1` (stereo not shown) [Compound 330]: the EC50 came out at 0.88 nM.

In turn, `Fc1cc(Cl)ccc1COc1cccc(C2=CCN(Cc3nc4cc(-c5nc(-c6cc(C(F)(F)F)[nH]n6)co5)ccc4n3C[C@@H]3CCO3)CC2)n1` [Compound 398] yielded an EC50 of 110 nM.

Regarding `O=C(Nc1ccc2[nH]nc(C(F)(F)F)c2c1)c1ccc2c(c1)nc(CN1CCC(c3cccc(OCc4ccc(Cl)cc4F)n3)CC1)n2C[C@@H]1CCO1` [Compound 111], the midpoint of the response, the EC50, lay at 2.34 nM.

On to `NC(=O)C[C@H](NC(=O)c1ccc2c(c1)nc(CN1CCC(c3cccc(OCc4ccc(Cl)cc4F)n3)CC1)n2CC1CCO1)C(=O)O` (stereo partly shown) [Compound 52], for which the EC50 was 12.8 nM.
